Measured values from patent publication US20240409585A1, “MACROCYCLIC IMMUNOMODULATORS” (priority 2021, published 2024).
Bridge positions count the residues as written; N and C are the ends. Square brackets hold non-standard residues; d marks the D form. Peptide text beside a SMILES is read from it. * marks the point of attachment. Phe(4-COOH) = N[C@@H](Cc1ccc(C(=O)O)cc1)C(=O)O; Bip = N[C@@H](Cc1ccc(-c2ccccc2)cc1)C(=O)O; Phe(3-OMe) = COc1cccc(C[C@H](N)C(=O)O)c1; Phe(3-Me) = Cc1cccc(C[C@H](N)C(=O)O)c1; 4Pal = N[C@@H](Cc1ccncc1)C(=O)O; Cha = N[C@@H](CC1CCCCC1)C(=O)O; Carboxymethyl = O=C(O)C*; NMeA = CN[C@@H](C)C(=O)O; Orn = NCCC[C@H](N)C(=O)O; dAbu = CC[C@@H](N)C(=O)O; Dab = NCC[C@H](N)C(=O)O; Dap = NC[C@H](N)C(=O)O

Target: T1, PE-labeled human PD-L1-Ig binding to Jurkat cell line over-expressing human PD-1 (Jurkat-PD-1) (Homo sapiens, UniProt Q15116)
T1 construct: expressed in transfected cells; host or cells: Jurkat
Test: Jurkat-PD-1 Cell Binding High-Content Screening Assay (CBA): Method 1
Settings: Jurkat-hPD-1 cells, PE-labeled PD-L1-Ig 20 nM final; read-out: Jurkat HPDL1 PD1 IC50 (uM) (Method 1)

T1 sequence (Q15116 25-288): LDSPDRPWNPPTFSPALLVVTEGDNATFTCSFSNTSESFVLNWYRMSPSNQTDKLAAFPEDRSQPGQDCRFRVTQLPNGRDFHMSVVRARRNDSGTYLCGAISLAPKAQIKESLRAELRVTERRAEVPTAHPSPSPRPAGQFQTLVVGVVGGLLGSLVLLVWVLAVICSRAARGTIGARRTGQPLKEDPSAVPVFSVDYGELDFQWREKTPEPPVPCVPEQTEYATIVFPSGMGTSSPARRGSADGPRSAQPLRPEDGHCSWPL

SMILES	IC50 [µM]
Cc1cccc(C[C@@H]2NC(=O)[C@H](CC(=O)O)NC(=O)[C@H](Cc3ccc(OCC(=O)O)cc3)NC(=O)[C@H](CN)NC(=O)CSC[C@@H](C(N)=O)NC(=O)[C@H](CCCN)NC(=O)[C@H](C(C)C)NC(=O)[C@H](CC3CCCCC3)NC(=O)[C@H](CCN)NC(=O)[C@@H](CC(C)C)NC(=O)[C@H](C)N(C)C(=O)[C@H](Cc3ccc(OCC(=O)O)cc3)NC(=O)[C@H](Cc3ccc(-c4ccccc4)cc3)NC(=O)[C@H](Cc3ccc(OCC(=O)O)cc3)NC2=O)c1 [Compound 1646] ({CH2CO}-[Dap]Y(Carboxymethyl)D[Phe(3-Me)]Y(Carboxymethyl)[Bip]Y(Carboxymethyl)[NMeA][dL][Dab][Cha]V[Orn]C-NH2; thioether N-14)	0.03
COc1cccc(C[C@@H]2NC(=O)[C@H](CN)NC(=O)CSC[C@@H](C(=O)N[C@@H](C)C(N)=O)NC(=O)[C@H]([C@@H](C)O)NC(=O)[C@H](C(C)C)NC(=O)[C@H](CC(C)C)NC(=O)[C@H](CCN)NC(=O)[C@@H](CC(C)C)NC(=O)[C@H](C)N(C)C(=O)[C@H](CCCNC(=N)N)NC(=O)[C@H](Cc3ccc(-c4ccccc4)cc3)NC(=O)[C@H](C(C)C)NC(=O)[C@H](Cc3c[nH]c4ccccc34)NC(=O)[C@H](CC(=O)O)NC2=O)c1 [Compound 1453] ({CH2CO}-[Dap][Phe(3-OMe)]DWV[Bip]R[NMeA][dL][Dab]LVTCA-NH2; thioether N-14)	0.08
Cc1cccc(C[C@@H]2NC(=O)[C@H](CC(=O)O)NC(=O)[C@H](Cc3ccc(OCC(=O)O)cc3)NC(=O)[C@H](Cc3ccncc3)NC(=O)CSC[C@@H](C(N)=O)NC(=O)[C@H]([C@@H](C)O)NC(=O)[C@H](C(C)C)NC(=O)[C@H](CC3CCCCC3)NC(=O)[C@H](CCN)NC(=O)[C@@H](CC(C)C)NC(=O)[C@H](C)N(C)C(=O)[C@H](Cc3ccc(OCC(=O)O)cc3)NC(=O)[C@H](Cc3ccc(-c4ccccc4)cc3)NC(=O)[C@H](Cc3ccc(OCC(=O)O)cc3)NC2=O)c1 [Compound 1660] ({CH2CO}-[4Pal]Y(Carboxymethyl)D[Phe(3-Me)]Y(Carboxymethyl)[Bip]Y(Carboxymethyl)[NMeA][dL][Dab][Cha]VTC-NH2; thioether N-14)	0.02
CC(C)C[C@@H]1NC(=O)[C@H](CCN)NC(=O)[C@@H](CC(C)C)NC(=O)[C@H](C)N(C)C(=O)[C@H](CCCNC(=N)N)NC(=O)[C@H](Cc2ccc(-c3ccccc3)cc2)NC(=O)[C@H](C(C)C)NC(=O)[C@H](Cc2c[nH]c3ccccc23)NC(=O)[C@H](CC(=O)O)NC(=O)[C@H](Cc2ccc(C(=O)O)cc2)NC(=O)[C@H](CN)NC(=O)CSC[C@@H](C(=O)N[C@@H](C)C(N)=O)NC(=O)[C@H]([C@@H](C)O)NC(=O)[C@H](C(C)C)NC1=O [Compound 1451] ({CH2CO}-[Dap][Phe(4-COOH)]DWV[Bip]R[NMeA][dL][Dab]LVTCA-NH2; thioether N-14)	0.08
CC(C)C[C@@H]1NC(=O)[C@H](CCCN)NC(=O)[C@@H](CC(C)C)NC(=O)[C@H](C)N(C)C(=O)[C@H](CCCN)NC(=O)[C@H](Cc2ccc(-c3ccccc3)cc2)NC(=O)[C@H](C(C)C)NC(=O)[C@H](Cc2c[nH]c3ccccc23)NC(=O)[C@H](CC(=O)O)NC(=O)[C@H](Cc2ccc(O)cc2)NC(=O)[C@H](CC(N)=O)NC(=O)CSC[C@@H](C(=O)N[C@@H](C)C(N)=O)NC(=O)[C@H](CO)NC(=O)[C@H](C(C)C)NC1=O [Compound 1251] ({CH2CO}-NYDWV[Bip][Orn][NMeA][dL][Orn]LVSCA-NH2; thioether N-14)	0.04
CC[C@H]1NC(=O)[C@H](C)N(C)C(=O)[C@H](C(C)C)NC(=O)[C@H](Cc2ccc(-c3ccccc3)cc2)NC(=O)[C@H](CC(C)C)NC(=O)[C@H](Cc2c[nH]c3ccccc23)NC(=O)[C@H](CC(=O)O)NC(=O)[C@H](Cc2ccc(O)cc2)NC(=O)[C@H](Cc2ccccc2)NC(=O)CSC[C@@H](C(=O)N[C@@H](C)C(N)=O)NC(=O)[C@H](CO)NC(=O)[C@H](C(C)C)NC(=O)[C@H](CC(C)C)NC(=O)[C@H](CC(N)=O)NC1=O [Compound 1763] ({CH2CO}-FYDWL[Bip]V[NMeA][dAbu]NLVSCA-NH2; thioether N-14)	0.04
